Measured values published in US20100035843A1, “METHODS FOR ATTENUATING ALLERGEN-INDUCED AIRWAY HYPERREACTIVITY USING CD1D DEPENDENT ANTAGONISTS” (THE GENERAL HOSPITAL CORPORATION, priority 2007, published 2010).

How the values were obtained:
[1] = system: OVA-specific Th2 responses; assay: Restimulation of bronchial lymph node cells of treated mice with OVA in vitro, cytokine ELISA; type: in vivo, BALB/c mice
Description: Bronchial lymph nodes were removed from Peg treated or PBS treated mice and restimulated with 100 μg of OVA in vitro. After 72 hrs supernatants were collected and cytokine production analyzed by ELISA. ELISA data are representative of three separate experiments (n=4) and are shown as mean±SD for triplicate samples. Restimulation of lymph node cells in vitro. Cells isolated from lymph nodes of OVA-primed mice were restimulated in vitro (5×10^5 cells per well in a 96-well plate) with various concentrations of OVA. Supernatants were collected after 4 days and assayed for IL-4 and IFN-γ by ELISA as previously described (15). Cytokine ELISAs—Cytokine secretion following in vitro challenge with OVA and control peptides were determined by ELISA as described before (15). Briefly, the following monoclonal antibodies R4-6A2 and XMG1.2-biotin for IFN-γ and 11B11 and BVD6-24G2-biotin for IL-4 were used for capture and detection. […] Bronchial lymph nodes were removed from Peg treated or PBS treated mice and restimulated with 100 μg of OVA in vitro. After 72 hrs supernatants were collected and cytokine production analyzed by ELISA. ELISA data are representative of three separate experiments (n=4) and are shown as mean±SD for triplicate samples. Since treatment with DPPE-PEG350 inhibited the development of AHR, we next asked if administration of the CD1d-dependent antagonist prior to airway challenge altered systemic OVA-specific Th2 responses. Bronchial lymph node cells were isolated from OVA sensitized mice treated with either DPPE-PEG350 or PBS, and restimulated in vitro with 100 μg/ml of ovalbumin a day after induction of AHR. […] No OVA-specific cytokine secretion was seen if the animals had not been sensitized with OVA on day 0 (data not shown).

[2] = system: iNKT cell hybridoma line DN32; assay: DN32 NKT hybridoma activation by α-GalCer, IL-2 release read with CTLL-2 cells; type: cell-based; conditions: 200 μg/ml for 4 hours, then titrating α-GalCer 48 h; particularly at suboptimal α-GalCer (FIG. 1C)
Description: Culture supernatants were collected and IL-2 expression expression analyzed with IL-2 dependant cell line CTLL-2. Data are means±SD of triplicate cultures.
Phosphatidylethanolamine and DPPE-PEG bind to CD1d and prevent iNKT cell activation (2-5). To determine whether activation of iNKT cells by α-GalCer could specifically be inhibited by DPPE-PEG, splenocytes were incubated with α-GalCer (100 ng/ml) or plate-bound anti-CD3. […] FIGS. 1A and 1B show splenocyte cells (5×10^6/ml) pooled from BALB/cJ mice (n=4) that were cultured in anti-CD3 mAb (2 μg/ml)-precoated 24-well plates in complete RPMI±increasing concentrations of DPPE-PEG350, or that were cultured in 24-well plates in complete RPMI±α-GalCer (100 ng/ml)±increasing concentrations of DPPE-PEG350. After 48 h, supernatants were gathered and examined for IL-4 and INF-γ by ELISA. ELISA data are representative of three separate experiments each and are shown as mean±SD for triplicate samples. […] Culture supernatants were collected and IL-2 expression expression analyzed with IL-2 dependant cell line CTLL-2. Data are means±SD of triplicate cultures.
We also tested the ability of DPPE-PEG350 to block the iNKT cell hybridoma line DN32, activation by α-GalCer. DN32 cells were loaded with 200 μg/ml of DPPE-PEG, and stimulated with titrating dose of α-GalCer. […]

[3] = system: contact hypersensitivity (CHS); conditions: Nieuwenhuis et al.; cited from earlier work
[4] = system: anti-CD3 activated T cells; assay: Splenocytes cultured on plate-bound anti-CD3 mAb, cytokine ELISA; type: cell-based, BALB/cJ mice; conditions: plate-bound anti-CD3 2 μg/ml, at concentrations that significantly inhibited α-GalCer-stimulated secretion
Description: (§1) FIGS. 1A and 1B show splenocyte cells (5×10^6/ml) pooled from BALB/cJ mice (n=4) that were cultured in anti-CD3 mAb (2 μg/ml)-precoated 24-well plates in complete RPMI±increasing concentrations of DPPE-PEG350, or that were cultured in 24-well plates in complete RPMI±α-GalCer (100 ng/ml)±increasing concentrations of DPPE-PEG350. After 48 h, supernatants were gathered and examined for IL-4 and INF-γ by ELISA. ELISA data are representative of three separate experiments each and are shown as mean±SD for triplicate samples.
(§2) Inhibition of in vitro iNKT activation with DPPE-PEG-Splenocytes cells (5×10^6/ml) pooled from BALB/cJ mice (n=4) were cultured in anti-CD3 mAb (2 μg/ml)-precoated 24-well plates in complete RPMI±increasing concentrations of DPPE-PEG350, or cultured in 24-well plates in complete RPMI±KRN7000 (100 ng/ml)±increasing concentrations of DPPE-PEG350. After 48 h, supernatants were gathered and examined for IL-4 and INF-γ by ELISA as described (35).
(§3) Phosphatidylethanolamine and DPPE-PEG bind to CD1d and prevent iNKT cell activation (2-5). To determine whether activation of iNKT cells by α-GalCer could specifically be inhibited by DPPE-PEG, splenocytes were incubated with α-GalCer (100 ng/ml) or plate-bound anti-CD3. […] Culture supernatants were collected and IL-2 expression expression analyzed with IL-2 dependant cell line CTLL-2. […]

OVA-induced AHR = assay: OVA-induced model of airway hyperreactivity (AHR); type: in vivo, BALB/c mice; conditions: for number of cells (eosinophils, lymphocytes, macrophages) in BAL fluid: versus OVA-immunized control group, BAL 3 h after airway measurements (FIG. 2D); for histological examination of H&E-stained lung sections: OVA-immunized mice, compared with saline (negative) control (data not shown); for development of methacholine-induced AHR (PenH, whole-body plethysmograph): single dose 250 μg i.v., 1 day before OVA challenge, OVA-immunized mice (FIG. 2B)
Description: DPPE (250 μg) was injected i.v. on day 8 and AHR was measured on day 12. Reagents. Anti-CD3 mAb was purchased from BD PharMingen (San Diego, Calif.). α-Galactosylceramide (α-[…]7000) was purchased from Axxora LLC (San Diego, Calif.). DPPE-PEG. (1,2-Dipalmitoyl-sn-Glycero-3-Phosphoethanolamine-N-[Methoxy(Polyethylene glycol)-350]) (Ammonium Salt) (PEG350) was purchased from Avanti Polar Lipids, INC (Alabaster, Ala.). We thank A. Bendelac for the DN32.D3 hybridoma cells. To induce AHR, mice were immunized intraperitoneally with 50 μg of LPS free OVA (Worthington Biochemical Corp., NJ) in 2 mg of alum in volume of 0.5 ml. Ten days later mice were lightly anesthetized with methoxoflurane and challenged with i.n. OVA (50 μg) on 3 consecutive days. Induction of AHR and measurement of airway responsiveness-AHR responses were assessed by methacholine-induced airflow obstruction in conscious mice placed in a whole-body plethysmograph (Buxco Electronics, Troy, N.Y.) as described previously 15. In some experiments AHR was assessed by invasive measurement of airway resistance, in which anesthetized and tracheostomized mice were mechanically ventilated using a modified version of a described method 36. Aerosolized methacholine was administered for 20 breaths in increasing concentrations (1.25, 2.5, 5 and 10 mg/ml of methacholine). We continuously computed RL and Cdyn by fitting flow, volume and pressure to an equation of motion. Collection and analysis of BAL fluid-Mice were lethally anesthetized with phenobarbital 450 mg/kg i.p. The trachea was cannulated and the lungs were lavaged three times with 0.3 ml of PBS, and the collected fluid was pooled. Cell counts and analysis of the BAL was performed as described (15). […] In this model, an asthma-like phenotype with AHR, eosinophilic airway inflammation and mucus hypersecretion is induced by systemic sensitization with OVA followed by intrapulmonary challenge with OVA (FIG. 2A).

CD1d = conditions: references 2-5; cited from earlier work
[5] = system: α-GalCer-stimulated iNKT cells; assay: Inhibition of in vitro iNKT activation: splenocytes stimulated with α-GalCer, cytokine ELISA; type: cell-based, BALB/cJ mice
Description: as §1, §2, §3

iNKT cell = conditions: references 2-5; cited from earlier work
[6] = bronchial lymph node cells, 100 μg/ml ovalbumin, versus PBS treated group (FIG. 3)

Row | Compound | IL-4 secretion to OVA recall [1, 6] | IL-5 secretion to OVA recall [1, 6] | IL-13 secretion to OVA recall [1, 6] | ova-specific secretion of IFN-γ after in vitro re-challenge ([1]; sensitized and DPPE-PEG treated animals) | IL-2 release from DN32 iNKT cells [2] | dermatitis in the CHS model [3] | cytokine production by anti-CD3 activated T cells [4] | AHR by direct measurement of airway resistance (RL) and dynamic compliance (Cdyn) (OVA-induced AHR; 250 μg i.v., anesthetized, tracheostomized, mechanically ventilated mice (FIG. 2C)) | number of cells (eosinophils, lymphocytes, macrophages) in BAL fluid (OVA-induced AHR; 250 μg i.v.) | histological examination of H&E-stained lung sections (OVA-induced AHR) | development of methacholine-induced AHR (PenH, whole-body plethysmograph) (OVA-induced AHR) | binding to CD1d (CD1d) | secretion of IL-4 by α-GalCer-stimulated iNKT cells ([5]; splenocytes, α-GalCer 100 ng/ml, increasing concentrations of DPPE-PEG, 48 h, ELISA (FIG. 1A/1B)) | iNKT cells cytokine release compared to anti-CD3 activated T cells (preference) ([5]; α-GalCer-stimulated versus anti-CD3-stimulated splenocytes (FIGS. 1A and B)) | iNKT cell activation (iNKT cell) | development of OVA specific Th2 responses ([1]; bronchial lymph nodes restimulated with 100 μg of OVA, 72 hrs (FIG. 3))
1 | 1,2-Dipalmitoyl-sn-Glycero-3-Phosphoethanolamine-N-[Methoxy(Polyethylene glycol)-350] [DPPE-PEG350] | No significant difference | No significant difference | No significant difference | did not affect | inhibited | blocked | no or minimal effect | confirmed | significantly reducing | no significant differences | completely prevented | bind | inhibited | preferentially inhibited | prevent | –
2 | CCCCCCCCCCCCCCCC(=O)OC[C@H](COP(=O)(O)OCCN)OC(=O)CCCCCCCCCCCCCCC [DPPE, 1,2-Dipalmitoyl-sn-Glycero-3-Phosphoethanolamine] | – | – | – | – | – | – | – | – | almost completely abrogated | minimal mucus production and negligible cellular infiltration | completely inhibited | – | – | – | – | does not inhibit
3 | Phosphatidylethanolamine [reference compound] | – | – | – | – | – | – | – | – | – | – | – | bind | – | – | prevent | –
